The subject of test [1] is HCV genotype 1b replicon cell line (APC144; Huh7 cell background). The experiment in a line: HCV Genotype 1b Replicon Assay (Renilla luciferase readout). The format is cell-based. The following applies: Hepatitis C virus, Huh-7; read-out: Genotype 1b (pEC50 class, HCV genotype 1b replicon assay) (converted). The text has this:
Assay 1: HCV Genotype 1b Replicon Assay
The HCV genotype 1b replicon cell line was obtained from Apath LLC (Brooklyn, N.Y.) (APC144; Huh7 cell background). This subgenomic replicon contains the N-terminus of the HCV core protein fused to the neomycin-resistance selectable marker. The EMCV IRES lies downstream and drives expression of humanized Renilla luciferase fused to the non-structural proteins NS3-NS5B. This cell line was used to determine compound potency using the luciferase activity readout as a measurement of compound inhibition of replicon levels.
Cells were grown at 37° C. in a 5% CO2 humidified incubator in DMEM (Invitrogen) with 10% FBS (HyClone), 1×NEAA (Invitrogen), 1× Pen-Strep (Invitrogen), and 500 μg/mL G418 (Invitrogen). On day 1 of the assay, cells were plated at 10,000 cells/well in white 96-well tissue culture plates (Costar) in 200 μL media lacking G418. Four hours later, once the cells have adhered, the media was removed and replaced with media (no G418) containing dose-responses of test compounds. Compounds were initially diluted in DMSO and then diluted another 200× in media to bring the final DMSO concentration down to 0.5%. The cells were incubated with test compounds for 48 hours. At the end of the incubation period, media and compound were removed from the plates and the luciferase activity was determined using Promega Renilla-Glo reagents.
To analyze the data, the luciferase activity was plotted vs. the compound concentration, and EC50 values were determined from a 4-parameter robust fit model with the GraphPad Prism software package (GraphPad Software, Inc., San Diego, Calif.). Results are expressed as the negative decadic logarithm of the EC50 value, pEC50.
Test compounds having a higher pEC50 value in this assay show greater inhibition of HCV genotype 1b replication.
(In antiviral work, replicon cells carry a viral genome segment that copies itself.)

The subject of test [2] is HCV genotype 1a replicon cell line (APC89; Huh7.5 cell background). The experiment in a line: HCV Genotype 1a Replicon Assay (NS3-specific protease activity readout). The format is cell-based. The following applies: Hepatitis C virus. In outline: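 EC50 values came from a 4-parameter robust fit of fluorescence (ex 340, em 509 nm) produced by NS3-specific protease in lysates, assayed with 15 μM FRET substrate for 20 min at 37° C, after 48 or 72 hours of compound exposure (0.5% DMSO) of Huh7.5-derived APC89 genotype 1a replicon cells.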

The mark [3] stands for this setting: 72 hour incubation, read-out: Genotype 1a (pEC50 class, HCV genotype 1a replicon assay) (converted).
The mark [4] stands for this setting: compounds incubated for 48 hours, read-out: Genotype 1a (pEC50 class, HCV genotype 1a replicon assay), * results (converted).

The values that follow come from patent US8921372B2, “Inhibitors of hepatitis C virus” (Theravance Biopharma R&D IP, LLC, priority 2010, dated 2014).

Where two headings read alike, the source gives them in different places.

Turning to `COC(=O)N[C@H](C(=O)N1CCC[C@H]1c1nc(-c2ccc(-c3cc(F)c(NC(=O)c4ccc(N5CCN(C(=O)[C@]6(C)CCCN6C(=O)[C@@H](N)C(C)C)C[C@H]5C)nc4)cc3OC(F)(F)F)cc2)c[nH]1)C(C)C` [Example 27-44], the EC50 in test [1] and in test [2] (setting [3]) was under 0.1 nM each time.

Consider `COC(=O)N[C@H](C(=O)N1CCC[C@H]1c1nc(-c2ccc(-c3cc(F)c(NC(=O)c4ccc(N5C[C@H](C)N(C(=O)c6c[nH]cn6)C[C@H]5C)nc4)cc3OC(F)(F)F)cc2)c[nH]1)C(C)C` [Example 59], for which the EC50 in test [1] and in test [2] (setting [3]) was under 0.1 nM in each case.

In the case of `COC(=O)N[C@H](C(=O)N1CCC[C@H]1c1nc(-c2ccc(-c3ccc(NC(=O)c4ccc(N5CCN(C(=O)c6c[nH]cn6)C[C@H]5C)nc4)cc3C)cc2)c[nH]1)C(C)C` [Example 19], the EC50 is under 0.1 nM in test [1] and 0.1 to 1 nM in test [2] (setting [3]).

For `COC(=O)N[C@H](C(=O)N1CCC[C@H]1c1nc(-c2ccc(-c3ccc(NC(=O)c4ccc(N5CCN(C(=O)[C@H]6CC6(C)C)C[C@H]5C)nc4)cc3F)c(F)c2)c[nH]1)C(C)C` [Example 50, [(S)-1-((S)-2-{4-[4′-({6-[(R)-4-((S)-2,2-dimethyl-cyclopropanecarbonyl)-2-methyl-piperazin-1-yl]-pyridine-3-carbonyl}-amino)-2,2′-difluoro-biphenyl-4-yl]-1H-imidazol-2-yl}-pyrrolidine-1-carbonyl)-2-methyl-propyl]-carbamicacid methyl ester], the EC50 in test [1] and in test [2] (setting [3]) was under 0.1 nM each time.

As for `COC(=O)N[C@H](C(=O)N1CCC[C@H]1c1nc(-c2ccc(-c3ccc(NC(=O)c4ccc(N5CCN(C(=O)C(C)(C)C)CC5)cc4)cc3)cc2)c[nH]1)C(C)C` [Example 2, ((S)-1-{(S)-2-[4-(4′-{4-[4-(2,2-Dimethyl-propionyl)-piperazin-1-yl]-benzoylamino}-biphenyl-4-yl)-1H-imidazol-2-yl]-pyrrolidine-1-carbonyl}-2-methyl-propyl)-carbamic acid methyl ester], the results for the EC50 in test [1] and in test [2] (setting [4]) were under 0.1 nM and 1 to 10 nM, respectively.

In the case of `COC(=O)N[C@H](C(=O)N1CCC[C@H]1c1nc(-c2ccc(-c3ccc(NC(=O)c4ccc(N5CCN(C(=O)C6CC6)CC5)nc4)cc3)cc2)c[nH]1)C(C)C` [Example 5, ((S)-1-{(S)-2-[4-(4′-{[6-(4-Cyclopropanecarbonyl-piperazin-1-yl)-pyridine-3-carbonyl]-amino}-biphenyl-4-yl)-1H-imidazol-2-yl]-pyrrolidine-1-carbonyl}-2-methyl-propyl)-carbamic acid methyl ester], the EC50 was under 0.1 nM in test [1] and 1 to 10 nM in test [2] (setting [3]).

As to `COC(=O)N[C@H](C(=O)N1CCC[C@H]1c1nc(-c2ccc(-c3c(F)cc(NC(=O)c4ccc(N5CCN(C(=O)[C@H]6CC6(C)C)C[C@H]5C)nc4)cc3F)cc2)c[nH]1)C(C)C` [Example 41, [(S)-1-((S)-2-{5-[4′-({6-[(R)-4-((S)-2,2-Dimethyl-cyclopropanecarbonyl)-2-methyl-piperazin-1-yl]-pyridine-3-carbonyl}-amino)-2′,6′-difluoro-biphenyl-4-yl]-1H-imidazol-2-yl}-pyrrolidine-1-carbonyl)-2-methyl-propyl]-carbamic acid methyl ester], the EC50 in test [1] and in test [2] (setting [3]) was under 0.1 nM in each case.

For `COC(=O)N[C@H](C(=O)N1CCC[C@H]1c1nc(-c2ccc(-c3cc(F)c(NC(=O)c4ccc(N5CCN(C(=O)Cn6cccn6)C[C@H]5C)nc4)cc3OC(F)(F)F)cc2)c[nH]1)C(C)C` [Example 27-36], the EC50 in test [1] and in test [2] (setting [3]) was under 0.1 nM throughout.

As to `COC(=O)N[C@H](C(=O)N1CCC[C@H]1c1nc(-c2ccc(-c3cc(F)c(NC(=O)c4ccc(N5CCN(C(=O)c6c[nH]cn6)C[C@H]5C)nc4)cc3OC(F)(F)F)cc2)c[nH]1)C(C)C` [Example 27-33], the EC50 in test [1] and in test [2] (setting [3]) was under 0.1 nM throughout.

Turning to `COC(=O)N[C@H](C(=O)N1CCC[C@H]1c1nc(-c2ccc(-c3c(F)cc(NC(=O)c4ccc(N5CCN(C(=O)c6c[nH]cn6)C[C@H]5C)nc4)cc3F)cc2)c[nH]1)C(C)C` [Example 44], the EC50 in test [1] was under 0.1 nM; in test [2] (setting [3]) it was 0.1 to 1 nM.

As for `COC(=O)N[C@H](C(=O)N1CCC[C@H]1c1nc(-c2ccc(-c3ccc(NC(=O)c4ccc(N5CCN(C(=O)[C@H]6CC6(C)C)C[C@H]5C)nc4)cc3C(F)(F)F)cc2)c[nH]1)C(C)C` [Example 34, [(S)-1-((S)-2-{5-[4′-({6-[(R)-4-((S)-2,2-Dimethyl-cyclopropanecarbonyl)-2-methyl-piperazin-1-yl]-pyridine-3-carbonyl}-amino)-2′-trifluoromethyl-biphenyl-4-yl]-1H-imidazol-2-yl}-pyrrolidine-1-carbonyl)-2-methyl-propyl]-carbamic acid methyl ester], the EC50 in test [1] and in test [2] (setting [3]) was under 0.1 nM in each case.

As to `COC(=O)N[C@H](C(=O)N1CCC[C@H]1c1nc(-c2ccc(-c3ccc(NC(=O)c4ccc(N5C[C@H](C)N(C(=O)[C@]6(C)CCCN6C(=O)[C@@H](NC(=O)OC)C(C)C)C[C@H]5C)nc4)cc3C)c(C)c2)c[nH]1)C(C)C` [Example 40], the EC50 in test [1] was under 0.1 nM; in test [2] (setting [3]) it was 0.1 to 1 nM.

`COC(=O)N[C@H](C(=O)N1CCC[C@H]1c1nc(-c2ccc(-c3ccc(NC(=O)c4ccc(N5C[C@H](C)N(C(=O)C6CC6)C[C@H]5C)nc4)cc3OC(F)(F)F)cc2)c[nH]1)C(C)C` [Example 30]: the EC50 in test [1] and in test [2] (setting [3]) was under 0.1 nM throughout.

With `COC(=O)N[C@H](C(=O)N1CCC[C@H]1c1nc(-c2ccc(-c3cc(Cl)c(NC(=O)c4ccc(N5C[C@H](C)N(C(=O)c6c[nH]cn6)C[C@H]5C)nc4)cc3C(F)(F)F)cc2)c[nH]1)C(C)C` [Example 65], the EC50 in test [1] and in test [2] (setting [3]) was under 0.1 nM each time.

With `COC(=O)N[C@H](C(=O)N1CCC[C@H]1c1nc(-c2ccc(-c3c(F)cc(NC(=O)c4ccc(N5CCN(C(=O)C6CC6)C[C@H]5C)nc4)cc3F)cc2)c[nH]1)C(C)C` [Example 42], the values for the EC50 in test [1] and in test [2] (setting [3]) were under 0.1 nM and 0.1 to 1 nM, respectively.

For the molecule `CNC(=O)N1CCN(c2ccc(C(=O)Nc3ccc(-c4ccc(-c5c[nH]c([C@@H]6CCCN6C(=O)[C@@H](NC(=O)OC)C(C)C)n5)cc4)cc3)cn2)CC1` [Example 10, ((S)-2-Methyl-1-{(S)-2-[4-(4′-{[6-(4-methylcarbamoyl-piperazin-1-yl)-pyridine-3-carbonyl]-amino}-biphenyl-4-yl)-1H-imidazol-2-yl]-pyrrolidine-1-carbonyl}-propyl)-carbamic acid methyl ester], the EC50 in test [1] is under 0.1 nM; in test [2] (setting [4]), 0.1 to 1 nM.

For the molecule `COC(=O)N[C@H](C(=O)N1CCC[C@H]1c1nc(-c2ccc(-c3ccc(NC(=O)c4ccc(N5CCN(C(=O)[C@H]6CC6(C)C)C[C@H]5C)nc4)cc3F)cc2)c[nH]1)C(C)C` [Example 45, [(S)-1-((S)-2-{5-[4′-({6-[(R)-4-((S)-2,2-Dimethyl-cyclopropanecarbonyl)-2-methyl-piperazin-1-yl]-pyridine-3-carbonyl}-amino)-2′-fluoro-biphenyl-4-yl]-1H-imidazol-2-yl}-pyrrolidine-1-carbonyl)-2-methyl-propyl]-carbamic acid methyl ester], the EC50 in test [1] and in test [2] (setting [3]) was under 0.1 nM in each case.

Turning to `CNC(=O)N1CCN(c2ccc(C(=O)Nc3ccc(-c4ccc(-c5c[nH]c([C@@H]6CCCN6C(=O)[C@@H](NC(=O)OC)C(C)C)n5)cc4)c(OC(F)(F)F)c3)cn2)[C@H](C)C1` [Example 26], the EC50 in test [1] and in test [2] (setting [3]) was under 0.1 nM throughout.

Turning to `COC(=O)N[C@H](C(=O)N1CCC[C@H]1c1nc(-c2ccc(-c3ccc(NC(=O)c4ccc(N5CCN(C(=O)C6CC6)C[C@H]5C)nc4)cc3OC(F)(F)F)cc2)c[nH]1)C(C)C` [Example 28], the EC50 in test [1] was under 0.1 nM; in test [2] (setting [3]) it was 0.1 to 1 nM.

As for `COC(=O)N[C@H](C(=O)N1CCC[C@H]1c1nc(-c2ccc(-c3cc(F)c(NC(=O)c4ccc(N5CCN(C(=O)CNC(C)=O)C[C@H]5C)nc4)cc3OC(F)(F)F)cc2)c[nH]1)C(C)C` [Example 27-37], the EC50 in test [1] and in test [2] (setting [3]) was under 0.1 nM each time.

As for `CNC(=O)N1CCN(c2ccc(C(=O)Nc3cc(F)c(-c4ccc(-c5c[nH]c([C@@H]6CCCN6C(=O)[C@@H](NC(=O)OC)C(C)C)n5)cc4)c(F)c3)cn2)[C@H](C)C1` [Example 43], the figures for the EC50 in test [1] and in test [2] (setting [3]) were under 0.1 nM and 0.1 to 1 nM, respectively.
